These results are taken from US20260234217A1, “USE OF BMP RECEPTOR ALK1 INHIBITORS IN OSTEOARTHRITIS THERAPIES” (The Regents of the University of California, priority 2023, published 2026).

What all share (type): in vivo, mouse
Test [1] has as its system articular cartilage of DMM mice. Put plainly: DMM model of post-traumatic OA: Safranin-O/Fast Green staining and OARSI scoring of articular cartilage damage. The following applies: for articular cartilage damage (SOFG staining, OARSI scoring): treatment from the time of DMM surgery, weekly, compared to PBS. The procedure:
FIG. 13. Growth differentiation factor 11 (GDF11, see, e.g., NCBI Reference Sequence: NP_005802.1) competes with BMP9/10 for binding to BMP type II receptors ACVRIIA or ACVRIIB, thereby preventing the association of BMP type I receptor ALK1 with ACVRIIA/B and decreasing BMP signaling. […] We tested this hypothesis by locally injecting GDF11 (50 ng/dose) into the knee joint space at mice with established post-traumatic OA. (A) Experimental Outline (B) Safranin-O/Fast Green (SOFG) Staining of sagittal sections of the knee joint, femur (top) and tibia (bottom) for proteoglycan (cartilage; red) and bone (green) at week 8 after DMM or Sham surgery. Mice were treated with either GDF11, or Phosphate Buffered Saline (PBS) after received surgery (n=5/group). 4-Week DMM mice were sacrificed 4 weeks after surgery and received no treatment (n=6). AC damage indicated by dotted line. (C-D) Osteoarthritis Research Society International (OARSI) scoring of AC damage in the (C) medial tibial plateau and (D) medial femoral condyle in representative sections of each treatment at week 4 or 8 after surgery. All data are shown as mean bar+/−standard deviation *p<0.05. Data analysis performed was one-way ANOVA. Scale 250 uM.
(§1) Mice (C57BL/6J) were purchased from The Jackson Laboratory. All mice were housed on a 12-hour light/dark cycle with unrestricted access to standard mouse food and water. The DMM model of injury induced OA was performed on mice at 12 weeks of age by opening the joint capsule and transecting the medial meniscotibial ligament in the right knee, destabilizing the medial meniscus(48). A sham operation was performed on the left knee of each mouse by observing the medial meniscotibial ligament but not transecting it. Mice were administered carprofen 5 mg/kg (Zoetis; 1041283) subcutaneously 30 minutes prior to surgery, immediately post-surgery, and 24 hours post-surgery to minimize pain.
(§2) Treatments were initiated either 1 day after DMM surgery once a week for 8 weeks, or 1 month after DMM surgery twice a week for 4 weeks. Mice were sacrificed at 20 weeks of age (2 months after surgery). To understand the level of articular cartilage damage 1 month after DMM surgery, a cohort of mice was sacrificed at 16 weeks old (FIG. 4).
Knee joint samples were harvested and fixed in 4% Paraformaldehyde for 3 days, and subsequently decalcified in formic acid (Statlab; 1414-32) for 3 days and embedded in paraffin. Sagittal sections 7 micrometers in thickness were taken and stained using Safranin-O (Sigma-Aldrich; S8884-25G), fast green (Sigma-Aldrich; F7258-25G), and hematoxylin (Fisherbrand; 245-656) using a standard histology protocol. Images were taken with the Olympus BX60 brightfield microscope using a 10× objective lens. Representative sections throughout the medial and lateral portion of side were chosen for histological analysis, resulting in 5 sections being imaged for both portions of the joint.
The 10 total sections per joint chosen for histology received randomized sample numbers and were given to three independent researchers who scored the level of cartilage damage based on OARSI guidelines (84). OARSI scores were analyzed with Prism 9 Software (GraphPad) using two-way ANOVA and Tukey's multiple comparisons test post-hoc. Scoring was performed by at least three experienced investigators blinded to treatment/genotype. Scores were averaged for the medial tibial plateau, medial femoral condyle, lateral tibial plateau, and lateral femoral condyle for each sample.

For the next test, the system named is pSMAD1/5. Put plainly: Immunohistochemistry of articular cartilage in DMM mice. The procedure: as §1, §2
(§3) Seven micrometer-thick representative sections were chosen for immunohistochemistry, using a standard protocol (35). Tissue sections were deparaffinized, rehydrated, and washed in sodium borohydride (Sigma-Aldrich; 480886). Sections were then incubated with hyaluronidase (Sigma-Aldrich; H3505) and blocked with 5% serum in 1% PBST. Tissue sections were treated with primary antibodies to mouse ALK1 (R&D; AF770), Phospho-SMAD1/5 (Cell Signaling Technology; 9516), Phospho-SMAD2 (Cell Signaling Technology; 3108), MMP13 (Abcam; ab260040), and COL10 (Abcam; […]) and incubated overnight. Sections were then treated with a dilution of secondary antibody goat anti-rabbit IgG (H+L) Cross-Adsorbed Secondary Antibody, Alexa Flour 488 (Invitrogen; A-11008) or donkey anti-goat IgG (H+L) Cross-Adsorbed Secondary Antibody, Alexa Flour 488 (Invitrogen; A11055) for 4 hours. Finally, sections were incubated with 0.1 ug/mL of DAPI for 10 minutes before being mounted with Fluoro-Gel (Electron Microscopy Sciences; 17985-31). Images were taken with the Nikon Eclipse Ti fluorescent microscope.

In the next test the test system is Collagen-X (COL10). The description is as above. The procedure:
as §1, §2, §3

For the next test, the system named is pSMAD2/3. Described as above. The procedure: as §1, §2, §3
The test system of test [2] is Matrix Metalloproteinase-13 (MMP13). Described as above. The procedure: as §1, §2, §3
Setting [3] is: delayed treatment, week 8, vs vehicle-treated mice examined 4 weeks after surgery.
Where [4] appears, read: delayed administration (1 month after DMM surgery).
Where [5] appears, read: treatment immediately after DMM surgery, week 8.
Where [6] appears, read: treated 1 month after DMM surgery.
Where [7] appears, read: treatment immediately after DMM surgery, week 8, listed as BMP-KI.

Entries after “also recorded” stand apart in the source; their conditions may differ.

For `COc1cc(-c2cc(-c3ccc(N4CCNCC4)cc3)cnc2C)cc(OC)c1OC` [LDN-214117], in test [1] (setting [3]), the “articular cartilage damage, femoral surface” value is listed as “less damage” and the “articular cartilage damage, tibial surface” value was “less damage”. In test [1] (treatment beginning 4 weeks after DMM, examined 8 weeks after surgery, vs vehicle-treated mice at 8 weeks), the “articular cartilage damage (OARSI scoring)” value is recorded as “significantly less damage”. Moreover, the “articular cartilage damage (SOFG staining, OARSI scoring)” value in test [1] (week 8) is given as “sufficient to prevent degradation of AC”. Besides, the “articular cartilage damage (SOFG staining, OARSI scoring)” value in test [1] (week 8, listed as BMP-KI) is “protection of articular cartilage”. Further, the “percentage of cells positive for pSMAD1/5” value in the test on pSMAD1/5 (setting [4]) was “reduced”. Further, the “pSMAD1/5 expression in articular cartilage” value in the test on pSMAD1/5 (setting [5]) was “reduced to normal levels”. Also, in the test on Collagen-X (COL10) (setting [6]), the “COL10 levels (percentage of cells expressing)” value is listed as “significantly decreased”. For the same compound, in the test on Collagen-X (COL10) (setting [7]), the “COL10 levels (percent of cells expressing)” value was “significantly decreases levels of expression; also recorded: visibly reduced”. For the same compound, the “percent cells positive for pSMAD2/3” value in the test with pSMAD2/3 (setting [4]) is listed as “not rescued”. The “pSMAD2/3 expression in articular cartilage” value with pSMAD2/3 (setting [5]) is “not restored to normal levels”. Also, the “MMP13 levels (percentage of cells expressing)” value in test [2] (setting [6]) is given as “attenuated to those of healthy sham control AC”. For the same compound, the “MMP13 levels (percent of cells expressing)” value in test [2] (setting [7]) is recorded as “significantly decreases levels of expression; also recorded: visibly reduced”.
